Non-standard residues stand in square brackets, D forms with d. Residues, ends and D or L forms follow the SMILES beside them. αMeL = CC(C)C[C@](C)(N)C(=O)O; Nle = CCCC[C@H](N)C(=O)O; Aib = CC(C)(N)C(=O)O
How the values were obtained:
Stability in rat plasma = format: in vitro ADME; settings: 37° C.; for Rat plasma stability % remaining, T = 0: 5 μM; for remaining at 1 h, 5 μM / remaining at 4 h, 5 μM: rat plasma (sodium or lithium heparin)
Protocol: (§1) Prior to the testing of stability in plasma of a peptide batch, its purity (HPLC-UV) was determined.
(§2) Rat and Human plasma: anti-coagulant sodium or lithium heparin.
(§3) 100 μM solution of study compound in 50 mM Phosphate buffer pH 7.4.
(§4) 950 μL plasma is pre-incubated for 5 min at 37° C. 50 μL of compound stock solution is added. Final compound concentration=5 μM. Vortex and transfer 1504, plasma into an Eppendorf for each time point. The time points 0-1 and −4 h are carried out in duplicate for each species.
(§5) After incubation extract 1504, plasma with 6004, Acetonitrile containing with 1% TFA. Vortex and centrifuge 10 min at 14600 rpm. Dry 2004, supernatant under N2. Reconstitute sample in 200 μL of H2O/CH3CN 98/2+0.1% FA+50 ng/ml Labetalol and analyze using the analytical system used in solubility and stability studies.
(§6) For determination of the amount of the remaining peptide, the peak areas of the target compound at t0 and each time point […] were compared, resulting in “% remaining peptide”, following the equation
(§7) % remaining peptide=[(peak area peptide time)×100]/peak area peptide t0. The stability is expressed as “% remaining peptide”.

RXFP1 = target: T1, RXFP1 (Homo sapiens, UniProt Q9HBX9); test: OVCAR5 cAMP assay (RXFP1 agonist activity, HTRF); settings: for Emax: OVCAR-5, read-out: cAMP assay in OVCAR 5 cells Emax, maximal intracellular cAMP relative to H2-relaxin in the same test occasion; for EC50: cAMP assay in OVCAR 5 cells EC50 (nM), OVCAR5 cells expressing endogenous RXFP1, cAMP by HTRF, 30 min at 37° C., 1 mM IBMX
T1 sequence (Q9HBX9 1-757): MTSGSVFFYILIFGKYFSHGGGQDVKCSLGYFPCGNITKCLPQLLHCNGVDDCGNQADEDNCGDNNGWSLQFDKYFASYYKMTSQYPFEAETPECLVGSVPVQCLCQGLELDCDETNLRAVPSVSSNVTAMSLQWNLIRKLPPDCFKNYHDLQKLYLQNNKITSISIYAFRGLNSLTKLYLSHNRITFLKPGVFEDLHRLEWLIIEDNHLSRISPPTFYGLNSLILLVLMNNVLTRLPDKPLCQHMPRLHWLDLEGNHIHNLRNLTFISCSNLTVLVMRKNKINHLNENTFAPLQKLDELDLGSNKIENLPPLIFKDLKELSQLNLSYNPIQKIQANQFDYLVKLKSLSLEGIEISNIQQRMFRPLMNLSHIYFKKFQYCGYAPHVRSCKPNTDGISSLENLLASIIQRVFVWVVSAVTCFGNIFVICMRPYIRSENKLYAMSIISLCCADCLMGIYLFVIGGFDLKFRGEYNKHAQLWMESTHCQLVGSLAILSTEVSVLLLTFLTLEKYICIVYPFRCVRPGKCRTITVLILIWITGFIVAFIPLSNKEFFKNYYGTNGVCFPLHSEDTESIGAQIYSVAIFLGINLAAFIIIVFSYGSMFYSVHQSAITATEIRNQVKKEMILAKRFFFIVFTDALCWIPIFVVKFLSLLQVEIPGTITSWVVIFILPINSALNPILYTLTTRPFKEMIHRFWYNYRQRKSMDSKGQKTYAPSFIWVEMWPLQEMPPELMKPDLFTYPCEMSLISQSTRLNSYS

[1] = Stability in human plasma; format: in vitro ADME; settings: 37° C.; for Human Plasma stability % remaining, T = 0: 5 μM; for remaining at 1 h, 5 μM / remaining at 4 h, 5 μM: human plasma (sodium or lithium heparin)
Protocol: as §1, §2, §3, §4, §5, §6, §7

[2] = Solubility testing of peptides in buffer; format: physicochemical; settings: Phosphate buffer 50 mM pH 7.4; target solubility 2.0 mg/ml; ~19 h; read-out: Solubility phosphate buffer pH 7.4

| Molecule | Rat plasma stability % remaining, T = 0 (Stability in rat plasma) | Emax (RXFP1) | Human Plasma stability % remaining, T = 0 [1] | also measured |
| --- | --- | --- | --- | --- |
| CC[C@H](C)[C@H](NC(=O)[C@H](CCC(N)=O)NC(=O)[C@H](C)NC(=O)[C@H](CCCNC(=N)N)NC(=O)[C@@H](NC(=O)[C@H](CCCCN)NC(=O)[C@H](CCC(=O)O)NC(=O)[C@H](CCCNC(=N)N)NC(=O)CNC(=O)[C@H](CCC(=O)O)NC(=O)[C@H](CC(C)C)NC(C)=O)C(C)C)C(=O)NC(C)(C)C(=O)N[C@H](C(=O)N[C@@H](CCC(=O)O)C(=O)NCC(=O)N[C@@H](CCSC)C(=O)N[C@@H](CO)C(=O)N[C@@H](CCCCN)C(=O)N[C@@H](Cc1c[nH]c2ccccc12)C(=O)N[C@@H](CO)C(=O)N[C@@H](CCCCN)C(=O)N[C@@H](CCCNC(=N)N)C(=O)N[C@@H](CCCCN)C(=O)N[C@@H](CCCCN)C(N)=O)[C@@H](C)CC [compound 1] (Ac-LEGREKVRAQI[Aib]IEGMSKWSKRKK-NH2) | 100% | 91% | 100% | remaining at 1 h, 5 μM (Stability in rat plasma): 72%; remaining at 4 h, 5 μM (Stability in rat plasma): 17%; remaining at 1 h, 5 μM [1]: 71%; remaining at 4 h, 5 μM [1]: 55% |
| CC[C@H](C)[C@H](NC(=O)[C@H](CCC(N)=O)NC(=O)[C@H](C)NC(=O)[C@H](CCCNC(=N)N)NC(=O)[C@@H](NC(=O)[C@H](CCCCN)NC(=O)[C@H](CCC(=O)O)NC(=O)[C@H](CCCNC(=N)N)NC(=O)CNC(=O)[C@H](CCC(=O)O)NC(=O)[C@H](CC(C)C)NC(C)=O)C(C)C)C(=O)NC(C)(C)C(=O)NC(C)(C)C(=O)N[C@@H](CCC(=O)O)C(=O)NCC(=O)N[C@@H](CCSC)C(=O)N[C@@H](CO)C(=O)N[C@@H](CCCCN)C(=O)N[C@@H](Cc1c[nH]c2ccccc12)C(=O)N[C@@H](CO)C(=O)N[C@@H](CCCCN)C(=O)N[C@@H](CCCNC(=N)N)C(=O)N[C@@H](CCCCN)C(=O)N[C@@H](CCCCN)C(N)=O [compound 2] (Ac-LEGREKVRAQI[Aib][Aib]EGMSKWSKRKK-NH2) | 100% | 99% | 100% | remaining at 1 h, 5 μM (Stability in rat plasma): 57%; remaining at 4 h, 5 μM (Stability in rat plasma): 24%; remaining at 1 h, 5 μM [1]: 80%; remaining at 4 h, 5 μM [1]: 79% |
| CCCC[C@H](NC(=O)CNC(=O)[C@H](CCC(=O)O)NC(=O)C(C)(C)NC(=O)C(C)(C)NC(=O)[C@@H](NC(=O)[C@H](C)NC(=O)[C@H](C)NC(=O)[C@H](CCCNC(=N)N)NC(=O)[C@@H](NC(=O)[C@H](CCCCN)NC(=O)[C@H](CCC(=O)O)NC(=O)[C@H](CCCNC(=N)N)NC(=O)CNC(=O)[C@H](CCC(=O)O)NC(=O)[C@H](CC(C)C)NC(=O)[C@H](CCC(=O)O)NC(C)=O)C(C)C)[C@@H](C)CC)C(=O)N[C@@H](CO)C(=O)N[C@H](C(=O)N[C@@H](Cc1c[nH]c2ccccc12)C(=O)N[C@@H](CO)C(=O)NC(C)(C)C(=O)N[C@@H](CCCNC(=N)N)C(=O)N[C@@H](CCCCN)C(=O)N[C@@H](CCCCN)C(N)=O)[C@@H](C)O [compound 48] (Ac-ELEGREKVRAAI[Aib][Aib]EG[Nle]STWS[Aib]RKK-NH2) |  | 91% |  |  |
| CCCC[C@H](NC(=O)CNC(=O)[C@H](CCC(=O)O)NC(=O)C(C)(C)NC(=O)C(C)(C)NC(=O)[C@@H](NC(=O)[C@H](CCC(N)=O)NC(=O)[C@H](CCCNC(=N)N)NC(=O)[C@H](CCCNC(=N)N)NC(=O)[C@@H](NC(=O)[C@H](CCCCN)NC(=O)[C@H](CCC(=O)O)NC(=O)[C@H](CCCNC(=N)N)NC(=O)CNC(=O)[C@H](CCC(=O)O)NC(=O)[C@H](CC(C)C)NC(C)=O)C(C)C)[C@@H](C)CC)C(=O)N[C@@H](CO)C(=O)N[C@H](C(=O)N[C@@H](Cc1c[nH]c2ccccc12)C(=O)N[C@@H](CO)C(=O)NC(C)(C)C(=O)N[C@@H](CCCNC(=N)N)C(=O)N[C@@H](CCCCN)C(=O)N[C@@H](CCCCN)C(N)=O)[C@@H](C)O [compound 49] (Ac-LEGREKVRRQI[Aib][Aib]EG[Nle]STWS[Aib]RKK-NH2) |  | 95% |  | solubility [2]: ≥ 2500 µg/mL |
| CCCC[C@H](NC(=O)CNC(=O)[C@H](CCC(=O)O)NC(=O)C(C)(C)NC(=O)C(C)(C)NC(=O)[C@@H](NC(=O)[C@H](CCC(N)=O)NC(=O)[C@H](C)NC(=O)[C@H](CCCNC(=N)N)NC(=O)[C@@H](NC(=O)[C@H](CCCCN)NC(=O)[C@H](CCC(=O)O)NC(=O)[C@H](CCCNC(=N)N)NC(=O)CNC(=O)[C@H](CCC(=O)O)NC(=O)[C@H](CC(C)C)NC(C)=O)C(C)C)[C@@H](C)CC)C(=O)N[C@@H](CO)C(=O)N[C@H](C(=O)N[C@@H](Cc1c[nH]c2ccccc12)C(=O)N[C@@H](CO)C(=O)NC(C)(C)C(=O)N[C@@H](CCCNC(=N)N)C(=O)N[C@@H](CCCNC(=N)N)C(=O)N[C@@H](CCCNC(=N)N)C(N)=O)[C@@H](C)O [compound 50] (Ac-LEGREKVRAQI[Aib][Aib]EG[Nle]STWS[Aib]RRR-NH2) |  | 90% |  | solubility [2]: ≥ 2300 µg/mL; EC50 (RXFP1): ≤ 5 nM |
| CCCC[C@H](NC(=O)CNC(=O)[C@H](CCC(=O)O)NC(=O)C(C)(C)NC(=O)C(C)(C)NC(=O)[C@@H](NC(=O)[C@H](CCC(N)=O)NC(=O)[C@H](C)NC(=O)[C@H](CCCNC(=N)N)NC(=O)[C@@H](NC(=O)[C@H](CCCCN)NC(=O)[C@H](CCC(=O)O)NC(=O)[C@H](CCCNC(=N)N)NC(=O)CNC(=O)[C@H](CCC(=O)O)NC(=O)[C@H](CC(C)C)NC(C)=O)C(C)C)[C@@H](C)CC)C(=O)N[C@@H](CO)C(=O)N[C@H](C(=O)N[C@@H](Cc1ccccc1)C(=O)N[C@@H](CO)C(=O)NC(C)(C)C(=O)N[C@@H](CCCNC(=N)N)C(=O)N[C@@H](CCCCN)C(=O)N[C@@H](CCCCN)C(N)=O)[C@@H](C)O [compound 51] (Ac-LEGREKVRAQI[Aib][Aib]EG[Nle]STFS[Aib]RKK-NH2) |  | 98% |  | solubility [2]: ≥ 2400 µg/mL |
| CCCC[C@H](NC(=O)CNC(=O)[C@H](CCC(=O)O)NC(=O)C(C)(C)NC(=O)C(C)(C)NC(=O)[C@@H](NC(=O)[C@H](CCCCNC(C)=O)NC(=O)[C@H](C)NC(=O)[C@H](CCCNC(=N)N)NC(=O)[C@@H](NC(=O)[C@H](CCCCN)NC(=O)[C@H](CCC(=O)O)NC(=O)[C@H](CCCNC(=N)N)NC(=O)CNC(=O)[C@H](CCC(=O)O)NC(=O)[C@](C)(CC(C)C)NC(C)=O)C(C)C)[C@@H](C)CC)C(=O)N[C@@H](CO)C(=O)N[C@H](C(=O)N[C@@H](Cc1c[nH]c2ccccc12)C(=O)N[C@@H](CO)C(=O)NC(C)(C)C(=O)N[C@@H](CCCNC(=N)N)C(=O)N[C@@H](CCCCN)C(=O)N[C@@H](CCCCNC(C)=O)C(N)=O)[C@@H](C)O [compound 56] (Ac-[αMeL]EGREKVRAK(Ac)I[Aib][Aib]EG[Nle]STWS[Aib]RKK(Ac)-NH2) |  | 95% |  |  |
| CC[C@H](C)[C@H](NC(=O)[C@H](CCC(N)=O)NC(=O)[C@H](C)NC(=O)[C@H](CCCNC(=N)N)NC(=O)[C@@H](NC(=O)[C@H](CCCCN)NC(=O)[C@H](CCC(=O)O)NC(=O)[C@H](CCCNC(=N)N)NC(=O)CNC(=O)[C@H](CCC(=O)O)NC(=O)[C@H](CC(C)C)NC(C)=O)C(C)C)C(=O)NC(C)(C)C(=O)NC(C)(C)C(=O)N[C@@H](CCC(=O)O)C(=O)NCC(=O)N[C@@H](CCC(N)=O)C(=O)N[C@@H](CO)C(=O)N[C@H](C(=O)N[C@@H](Cc1ccccc1)C(=O)N[C@@H](CO)C(=O)NC(C)(C)C(=O)N[C@@H](CCCNC(=N)N)C(=O)N[C@@H](CCCCN)C(=O)N[C@@H](CCCCN)C(N)=O)[C@@H](C)O [compound 57] (Ac-LEGREKVRAQI[Aib][Aib]EGQSTFS[Aib]RKK-NH2) |  | 91% |  | EC50 (RXFP1): 24.4 nM |
| Ac-VIKLSGRELVRAQIAISGMSTWSKKKK-NH2 [KKKK(AcB7-29 C11.23S), reference compound] | 100% |  | 100% |  |
| Ac-VIKLSGRELVRAQIAISGMSTWSKRSL-NH2 [AcB7-33 C11.23S, reference compound] | 100% |  | 100% |  |
| H-VIKLSGRELVRAQIAISGMSTWSKRSL-NH2 [B7-33 C11.23S, reference compound] | 100% |  | 100% |  |

Reference: patent publication US10988524B2, “Modified relaxin B chain peptides and their therapeutic use” (priority 2018, dated 2021)
